Assay results published in publication PMC10272271, “MAM-2201 acute administration impairs motor, sensorimotor, prepulse inhibition, and memory functions in mice: a comparison with its analogue AM-2201” (Psychopharmacology, 2023).

Assays:
[1] = test system: CD-1 male mice; set-up: method as in Bilel et al. ([2020]); settings: i.p., value ± SEM, elaborated from earlier data, ref Bilel et al. ([2020]); cited from earlier work
[2] = test system: CD-1 male mice; set-up: method as in Bilel et al. ([2020]); settings: i.p., value ± SEM, elaborated from earlier data, ref Bilel et al. ([2020]); cited from earlier work; remark: listed apart in the source
[3] = test system: CD-1 male mice; set-up: method as in Bilel et al. ([2020]); settings: i.p., value ± SEM, elaborated from earlier data, ref Bilel et al. ([2020]); cited from earlier work; remark: listed apart in the source
[4] = test system: CD-1 male mice; set-up: method as in Bilel et al. [2020]; settings: ref Bilel et al. [2020]; cited from earlier work
[5] = test system: CD-1 male mice; assay: Spontaneous locomotor activity (open field, ANY-maze); type: in vivo, mouse
Procedure: For the overall study 234 mice were used. In sensorimotor (visual object, visual placing, acoustic, and overall tactile responses) tests for MAM-2201, experiments for each treatment dose (vehicle or 5 different MAM-2201 doses, 0.01, 0.1, 1, 3, and 6 mg/kg) used 8 mice (total mice used: 48) and for MAM-2201 with AM-251 pretreatment, experiments for each dose regimen (vehicle + AM-251 or MAM-2201 + AM-251, 6 mg/kg) used 16 mice. In the analysis of spontaneous locomotion (open field test) for MAM-2201, experiments for each treatment regimen (vehicle or 4 different MAM-2201 doses, 0.01, 0.1, 1, and 6 mg/kg) used 10 mice (total mice used: 50). […] The voluntary and involuntary motor responses of the animal to different visual, acoustic, and tactile stimuli were evaluated according to the procedure described in our previous studies (Ossato et al. [2015]; Bilel et al. [2020]). To reduce the number of animals used, mice were evaluated in functional observational tests carried out in a consecutive manner according to the following time scheme: observation of visual object responses (frontal and lateral view), acoustic response, tactile response (vibrissae, corneal and pinnae reflexes), and visual placing response. […] Sensory gating was evaluated by analysis of the pre-pulse inhibition (PPI) of the acoustic startle reflex as previously described (Bilel et al. [2020]). […]

[6] = test system: CD-1 male mice; assay: Acoustic startle and pre-pulse inhibition (PPI) test; type: in vivo, mouse
[7] = test system: CD-1 male mice; assay: Acoustic response test; type: in vivo, mouse; settings: for acoustic response reduced to about: immediately after administration
Procedure: For the overall study 234 mice were used. In sensorimotor (visual object, visual placing, acoustic, and overall tactile responses) tests for MAM-2201, experiments for each treatment dose (vehicle or 5 different MAM-2201 doses, 0.01, 0.1, 1, 3, and 6 mg/kg) used 8 mice (total mice used: 48) and for MAM-2201 with AM-251 pretreatment, experiments for each dose regimen (vehicle + AM-251 or MAM-2201 + AM-251, 6 mg/kg) used 16 mice. In the analysis of spontaneous locomotion (open field test) for MAM-2201, experiments for each treatment regimen (vehicle or 4 different MAM-2201 doses, 0.01, 0.1, 1, and 6 mg/kg) used 10 mice (total mice used: 50). In the PPI test for MAM-2201, experiments for each treatment (vehicle or 3 different MAM-2201 doses, 0.01, 0.1, and 1 mg/kg) used 10 mice (total mice used: 40), while for MAM-2201 experiments in the Novel Object Recognition (NOR) test for each treatment regimen (vehicle or 3 different MAM-2201 and vehicle or 3 different AM-2201 doses, 0.01, 0.1, and 1 mg/kg) used 10 mice (total mice used: 80). In the present study the effect of MAM-2201 on sensorimotor responses was investigated using a battery of behavioral tests widely used in studies of “safety-pharmacology,” that we routinely adopted in our laboratory, for the preclinical characterization of new molecules in rodents (Ossato et al. [2015]; Vigolo et al. [2015]; Bilel et al. [2020]). The voluntary and involuntary motor responses of the animal to different visual, acoustic, and tactile stimuli were evaluated according to the procedure described in our previous studies (Ossato et al. [2015]; Bilel et al. [2020]). To reduce the number of animals used, mice were evaluated in functional observational tests carried out in a consecutive manner according to the following time scheme: observation of visual object responses (frontal and lateral view), acoustic response, tactile response (vibrissae, corneal and pinnae reflexes), and visual placing response. Sensorimotor tests were measured at 10, 30, 60, 120, 180, 240, and 300 min after injections for the evaluation of the visual object, acoustic and the tactile response, and at 15, 45, 75, 135, 195, 255, and 315 min after injections for the evaluation of visual placing response. Behavioral tests were conducted in a thermostated (temperature: 20–22 °C, humidity: 45–55%) and light (150 lx) controlled room with a background noise of 40 ± 4 dB. The apparatus for the visual object, acoustic and tactile sensorimotor tests consisted of an experimental chamber (350 × 350 × 350 mm) with black methacrylate walls and a transparent front door. During the week before the experiment, each mouse was placed in the box and handled (once a day) on every other day, i.e., 3 times, to get used to both the environment and the experimenter. To avoid olfactory cues, cages were carefully cleaned with a dilute (5%) ethanol solution and rinsed with water. All experiments were performed between 8:30 AM and 2:00 PM and conducted by trained observers working in pairs who were blinded to the treatment being tested (Ossato et al. [2015]). The behavior of mice was videotaped by a camera (B/W USB Camera day & night with varifocal lens; Ugo Basile, Italy) placed at the top or on one side of the box and analyzed off-line by a different trained operator. […] Sensory gating was evaluated by analysis of the pre-pulse inhibition (PPI) of the acoustic startle reflex as previously described (Bilel et al. [2020]). […]

[8] = test system: CD-1 male mice; assay: Overall tactile response (vibrissae, corneal, pinnae reflexes); type: in vivo, mouse
Procedure: For the overall study 234 mice were used. In sensorimotor (visual object, visual placing, acoustic, and overall tactile responses) tests for MAM-2201, experiments for each treatment dose (vehicle or 5 different MAM-2201 doses, 0.01, 0.1, 1, 3, and 6 mg/kg) used 8 mice (total mice used: 48) and for MAM-2201 with AM-251 pretreatment, experiments for each dose regimen (vehicle + AM-251 or MAM-2201 + AM-251, 6 mg/kg) used 16 mice. In the analysis of spontaneous locomotion (open field test) for MAM-2201, experiments for each treatment regimen (vehicle or 4 different MAM-2201 doses, 0.01, 0.1, 1, and 6 mg/kg) used 10 mice (total mice used: 50). In the PPI test for MAM-2201, experiments for each treatment (vehicle or 3 different MAM-2201 doses, 0.01, 0.1, and 1 mg/kg) used 10 mice (total mice used: 40), while for MAM-2201 experiments in the Novel Object Recognition (NOR) test for each treatment regimen (vehicle or 3 different MAM-2201 and vehicle or 3 different AM-2201 doses, 0.01, 0.1, and 1 mg/kg) used 10 mice (total mice used: 80). In the present study the effect of MAM-2201 on sensorimotor responses was investigated using a battery of behavioral tests widely used in studies of “safety-pharmacology,” that we routinely adopted in our laboratory, for the preclinical characterization of new molecules in rodents (Ossato et al. [2015]; Vigolo et al. [2015]; Bilel et al. [2020]). The voluntary and involuntary motor responses of the animal to different visual, acoustic, and tactile stimuli were evaluated according to the procedure described in our previous studies (Ossato et al. [2015]; Bilel et al. [2020]). To reduce the number of animals used, mice were evaluated in functional observational tests carried out in a consecutive manner according to the following time scheme: observation of visual object responses (frontal and lateral view), acoustic response, tactile response (vibrissae, corneal and pinnae reflexes), and visual placing response. Sensorimotor tests were measured at 10, 30, 60, 120, 180, 240, and 300 min after injections for the evaluation of the visual object, acoustic and the tactile response, and at 15, 45, 75, 135, 195, 255, and 315 min after injections for the evaluation of visual placing response. Behavioral tests were conducted in a thermostated (temperature: 20–22 °C, humidity: 45–55%) and light (150 lx) controlled room with a background noise of 40 ± 4 dB. […] The behavior of mice was videotaped by a camera (B/W USB Camera day & night with varifocal lens; Ugo Basile, Italy) placed at the top or on one side of the box and analyzed off-line by a different trained operator. […] Sensory gating was evaluated by analysis of the pre-pulse inhibition (PPI) of the acoustic startle reflex as previously described (Bilel et al. [2020]). […]

[9] = test system: CD-1 male mice; assay: Visual object response test; type: in vivo, mouse
Procedure: For the overall study 234 mice were used. In sensorimotor (visual object, visual placing, acoustic, and overall tactile responses) tests for MAM-2201, experiments for each treatment dose (vehicle or 5 different MAM-2201 doses, 0.01, 0.1, 1, 3, and 6 mg/kg) used 8 mice (total mice used: 48) and for MAM-2201 with AM-251 pretreatment, experiments for each dose regimen (vehicle + AM-251 or MAM-2201 + AM-251, 6 mg/kg) used 16 mice. In the analysis of spontaneous locomotion (open field test) for MAM-2201, experiments for each treatment regimen (vehicle or 4 different MAM-2201 doses, 0.01, 0.1, 1, and 6 mg/kg) used 10 mice (total mice used: 50). In the PPI test for MAM-2201, experiments for each treatment (vehicle or 3 different MAM-2201 doses, 0.01, 0.1, and 1 mg/kg) used 10 mice (total mice used: 40), while for MAM-2201 experiments in the Novel Object Recognition (NOR) test for each treatment regimen (vehicle or 3 different MAM-2201 and vehicle or 3 different AM-2201 doses, 0.01, 0.1, and 1 mg/kg) used 10 mice (total mice used: 80). In the present study the effect of MAM-2201 on sensorimotor responses was investigated using a battery of behavioral tests widely used in studies of “safety-pharmacology,” that we routinely adopted in our laboratory, for the preclinical characterization of new molecules in rodents (Ossato et al. [2015]; Vigolo et al. [2015]; Bilel et al. [2020]). The voluntary and involuntary motor responses of the animal to different visual, acoustic, and tactile stimuli were evaluated according to the procedure described in our previous studies (Ossato et al. [2015]; Bilel et al. [2020]). To reduce the number of animals used, mice were evaluated in functional observational tests carried out in a consecutive manner according to the following time scheme: observation of visual object responses (frontal and lateral view), acoustic response, tactile response (vibrissae, corneal and pinnae reflexes), and visual placing response. Sensorimotor tests were measured at 10, 30, 60, 120, 180, 240, and 300 min after injections for the evaluation of the visual object, acoustic and the tactile response, and at 15, 45, 75, 135, 195, 255, and 315 min after injections for the evaluation of visual placing response. Behavioral tests were conducted in a thermostated (temperature: 20–22 °C, humidity: 45–55%) and light (150 lx) controlled room with a background noise of 40 ± 4 dB. The apparatus for the visual object, acoustic and tactile sensorimotor tests consisted of an experimental chamber (350 × 350 × 350 mm) with black methacrylate walls and a transparent front door. During the week before the experiment, each mouse was placed in the box and handled (once a day) on every other day, i.e., 3 times, to get used to both the environment and the experimenter. To avoid olfactory cues, cages were carefully cleaned with a dilute (5%) ethanol solution and rinsed with water. All experiments were performed between 8:30 AM and 2:00 PM and conducted by trained observers working in pairs who were blinded to the treatment being tested (Ossato et al. [2015]). The behavior of mice was videotaped by a camera (B/W USB Camera day & night with varifocal lens; Ugo Basile, Italy) placed at the top or on one side of the box and analyzed off-line by a different trained operator. Spontaneous locomotion studies were conducted in a separate set of animals through ANYMAZE test. Sensory gating was evaluated by analysis of the pre-pulse inhibition (PPI) of the acoustic startle reflex as previously described (Bilel et al. [2020]).
Visual object response test was used to evaluate the ability of the mouse to see an object approaching from the front (frontal view) or the side (lateral view) that typically induces the animal to shift or turn the head, bring the forelimbs in the position of “defense” or retreat from it. For the frontal visual response, a white horizontal bar was moved frontally to the mouse head and the maneuver was repeated 3 times. […]

O=C(c1cccc2ccccc12)c1cn(CCCCCF)c2ccccc12 [AM-2201, 1-[(5-Fluoropentyl)-1H-indol-3-yl](1-naphthylenyl) methanone]
ED50 (mg/kg), Visual object [1]: 1.976 ± 0.063 mg/kg | ED50 (mg/kg), Startle reflex [2]: 1.291 ± 0.010 mg/kg | ED50 (mg/kg), Visual placing [3]: 0.500 ± 0.030 mg/kg | time during which distance traveled was reduced [4]: up to 45 min

Cc1ccc(C(=O)c2cn(CCCCCF)c3ccccc23)c2ccccc12 [MAM-2201, 1-[(5-fluoropentyl)-1H-indol-3-yl](4-methyl-1-naphthalenyl) methanone]
effect on immobility time ([5]; 1 and 6 mg/kg i.p., first hour): increased | time during which motor capacity was affected ([5]; open field test): ≤ 60 min | effect on startle amplitude ([6]; only at 1 mg/kg i.p., at 15 and 120 min): reduced | effect on PPI (prepulse startle intensity) ([6]; prepulse 68 dB, 15 min, 0.1 and 1 mg/kg i.p.): significant decrease | decrease of PPI ([6]; prepulse 68 dB, 120 min, 0.1 mg/kg i.p.): ~ 19% | decrease of PPI ([6]; prepulse 68 dB, 120 min, 1 mg/kg i.p.): ~40% | decrease of PPI ([6]; prepulse 75 dB, 15 min, 0.1 mg/kg i.p.): ~ 28% | decrease of PPI ([6]; prepulse 75 dB, 15 min, 1 mg/kg i.p.): ~ 41% | decrease of PPI ([6]; prepulse 75 dB, 120 min, 1 mg/kg i.p.): ~ 34% | decrease of PPI ([6]; prepulse 85 dB, 15 min, 0.1 mg/kg i.p.): ~ 19% | decrease of PPI ([6]; prepulse 85 dB, 15 min, 1 mg/kg i.p.): ~ 37% | decrease of PPI ([6]; prepulse 85 dB, 120 min, 0.1 mg/kg i.p.): ~ 19% | decrease of PPI ([6]; prepulse 85 dB, 120 min, 1 mg/kg i.p.): ~ 37% | acoustic response reduced to about ([7]; 1 mg/kg i.p.): about 20% | acoustic response reduced to about ([7]; 3 mg/kg i.p.): ~80% | acoustic response reduced to about ([7]; 6 mg/kg i.p.): ~100% | ED50 ([7]; Mus musculus, ip, mice, i.p., value ± SEM, acoustic response test, read-out: ED50 (mg/kg), Startle reflex): 1.25 ± 0.013 mg/kg | effect on overall tactile response ([8]; 1 mg/kg i.p., first hour after administration): slightly reduced | effect on overall tactile response ([8]; 3 and 6 mg/kg i.p.): deeper and more persistent effect | ED50 ([8]; Mus musculus, ip, mice, value ± SEM): 1.861 ± 0.011 mg/kg | effect on visual object response ([9]; 0.01 mg/kg i.p., at 30 min after injection): transiently reduced | effect on visual object response ([9]; 0.1 mg/kg i.p.): long-lasting inhibition | effect on visual object response ([9]; 1 mg/kg i.p., at 30 min): total inhibition | effect on visual object response ([9]; 3 and 6 mg/kg i.p., until end of test (5 h)): deep and prolonged impairment | ED50 ([9]; Mus musculus, ip, mice, value ± SEM, dose for 50% of overall mean effect): 1.14 ± 0.089 mg/kg
